Measurements published in the supplement of paper PMC10307832.

Columns and labels:
Assay in all cases: relative viability (nuclei count vs DMSO), 5 days (fraction); higher = more cells survive
Doramapimod + Lapatinib = compound: Cc1ccc(-n2nc(C(C)(C)C)cc2NC(=O)Nc2ccc(OCCN3CCOCC3)c3ccccc23)cc1 [Doramapimod] + CS(=O)(=O)CCNCc1ccc(-c2ccc3ncnc(Nc4ccc(OCc5cccc(F)c5)c(Cl)c4)c3c2)o1 [Lapatinib] (partner 2 µM)
Method in brief: (§1)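 The day after seeding in 1536-well plates, lung cancer cell lines were treated by pin tool with a single drug, or with a fixed anchor-drug dose together with five library-drug doses (not always all listed) in √10 steps. After 5 days, a combined fix-and-stain solution (final 0.05% Triton X-100, 1% formaldehyde, 1 ug/ml Hoechst) was added. Nuclei counted on 4× images gave relative viability as treated counts over vehicle counts, reported as the median of duplicate plates.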

RAF265 + Phenformin = compound: Cn1c(Nc2ccc(C(F)(F)F)cc2)nc2cc(Oc3ccnc(-c4ncc(C(F)(F)F)[nH]4)c3)ccc21 [RAF265] + N=C(N)NC(=N)NCCc1ccccc1 [Phenformin] (partner 250 µM)
Method in brief: as §1

RAF265 + Olaparib = compound: Cn1c(Nc2ccc(C(F)(F)F)cc2)nc2cc(Oc3ccnc(-c4ncc(C(F)(F)F)[nH]4)c3)ccc21 [RAF265] + O=C(c1cc(Cc2n[nH]c(=O)c3ccccc23)ccc1F)N1CCN(C(=O)C2CC2)CC1 [Olaparib] (partner 8 µM)
Method in brief: as §1

IPA-3 + Phenformin = compound: C1=CC=C2C(=C1)C=CC(=C2SSC3=C(C=CC4=CC=CC=C43)O)O [IPA-3] + N=C(N)NC(=N)NCCc1ccccc1 [Phenformin] (partner 250 µM)
Method in brief: as §1

Cell Line	relative viability (Doramapimod + Lapatinib; first compound 0.02 µM)	relative viability (Doramapimod + Lapatinib; first compound 0.06325 µM)	relative viability (Doramapimod + Lapatinib; first compound 0.2 µM)	relative viability (Doramapimod + Lapatinib; first compound 0.6325 µM)	relative viability (Doramapimod + Lapatinib; first compound 2 µM)	relative viability (RAF265 + Phenformin; first compound 0.01 µM)	relative viability (RAF265 + Phenformin; first compound 0.03162 µM)	relative viability (RAF265 + Phenformin; first compound 0.1 µM)	relative viability (RAF265 + Phenformin; first compound 0.3162 µM)	relative viability (RAF265 + Phenformin; first compound 1 µM)	relative viability (RAF265 + Olaparib; first compound 0.01 µM)	relative viability (RAF265 + Olaparib; first compound 0.03162 µM)	relative viability (RAF265 + Olaparib; first compound 0.1 µM)	relative viability (RAF265 + Olaparib; first compound 0.3162 µM)	relative viability (RAF265 + Olaparib; first compound 1 µM)	relative viability (IPA-3 + Phenformin; first compound 0.2 µM)	relative viability (IPA-3 + Phenformin; first compound 0.6325 µM)	relative viability (IPA-3 + Phenformin; first compound 2 µM)	relative viability (IPA-3 + Phenformin; first compound 6.325 µM)	relative viability (IPA-3 + Phenformin; first compound 20 µM)
LK-2	0.972	0.873	0.904	0.68	0.754	0.445	0.417	0.385	0.63	0.402	0.794	0.751	0.769	0.668	0.512	0.408	0.456	0.421	0.43	0.438
LOU-NH91	0.693	0.673	0.678	0.631	0.628	0.86	0.639	0.721	0.64	0.52	1.02	0.831	0.9	0.675	0.737	0.793	0.666	0.721	0.677	0.954
LU99A	0.959	1	0.981	1.1	0.897	0.817	0.821	0.679	0.571	0.375	0.268	0.283	0.226	0.185	0.152	0.883	0.764	0.858	0.933	0.799
LXF-289	0.851	0.924	0.912	0.871	0.834	0.52	0.526	0.476	0.372	0.338	1.08	1.06	0.998	0.748	0.551	0.536	0.47	0.544	0.514	0.546
NCI-H23	0.962	0.998	1.11	0.761	1.12	0.754	0.749	0.669	0.544	0.59	0.363	0.24	0.294	0.271	0.186	0.819	0.781	0.855	0.773	0.734
NCI-H322M	0.59	0.601	0.644	0.798	0.605	0.759	0.815	0.44	0.366	0.269	0.878	0.689	0.632	0.53	0.344	0.821	0.749	0.835	0.89	0.96
NCI-H358	0.508	0.426	0.472	0.571	0.443	0.419	0.308	0.252	0.144	0.149	0.749	0.489	0.403	0.286	0.16	0.433	0.355	0.306	0.359	0.278
NCI-H460	0.889	0.962	0.858	0.946	0.934	0.529	0.463	0.483	0.399	0.394	0.444	0.426	0.491	0.411	0.28	0.835	0.501	0.495	0.448	0.446
NCI-H520	0.828	0.865	0.945	0.807	0.629	0.553	0.544	0.579	0.555	0.397	0.366	0.316	0.322	0.301	0.255	0.817	0.63	0.369	0.512	0.712
NCI-H596	1.03	1.15	1.14	1.33	1.07	0.869	0.833	0.691	0.689	0.489	0.825	0.765	0.711	0.727	0.535	0.906	0.829	0.668	0.817	0.787
NCI-H647	0.789	1.09	1.21	1.06	0.826	0.432	0.515	0.38	0.282	0.212	0.422	0.494	0.357	0.399	0.306	0.8	0.482	0.48	0.371	0.107
NCI-H650	1.03	0.938	1.43	0.921	0.844	0.469	0.438	0.383	0.348	0.289	0.384	0.383	0.376	0.324	0.174	0.492	0.511	0.457	0.463	0.451
NCI-H661	0.477	0.438	0.48	0.588	0.413	0.258	0.27	0.275	0.281	0.261	0.775	0.667	0.724	0.605	0.464	0.31	0.266	0.293	0.259	0.272
NCI-H727	0.969	0.731	0.815	0.778	0.933	0.531	0.502	0.452	0.341	0.398	0.701	0.685	0.708	0.593	0.547	0.591	0.556	0.641	0.498	0.504
